The subject of one experiment is hypertrophied bladder (detrussor) smooth muscle. Kind of experiment: Inhibition of spontaneous contractions in vivo, hypertrophied rat bladder model. More on the design: species or system female Sprague-Dawley rat. The following applies: 3 mg/kg p.o.; 4 animals; conscious rats. An excerpt: In addition, we tested the ability of compounds to inhibit the hyperactivity of hypertrophied bladder (detrussor) smooth muscle in conscious female rats with hypertrophied bladders and thereby alleviate urinary incontinence in rats according to the following protocol described by Malmgren (A. Malmgren, K. E. Andersson, C. Sjogren, P. O. Andersson, Effects of pinacidil and Cromakalim (BRL 34915) on Bladder Function in Rats with Detrusor Instability, J. Urol. 142:1134, 1989.):
Female Sprague-Dawley rats, ranging in weight from 190-210 g are used. Up to 25 animals are prepared each time. After development of bladder hypertrophy 4-8 animals are used per test.
Compounds are dissolved in PEG-200 and administered by gastric gavage or intraveneously in a volume of 5 ml/kg. For primary screening all drugs are administered at the arbitrary dose of 10 mg/kg p.o. to groups of 4 rats.
The animals are anesthetized with halothane. Through a midline incision the bladder and urethra are exposed and a ligature of 4-0 silk is tied around the proximal urethra in the presence of a stainless steel rod (1 mm diameter) to produce a partial occlusion. The rod is then removed. The abdominal region is closed using surgical staples and each rat receives 150,000 units of bicillin C-R. The animals ar allowed six weeks to develop sufficient bladder hypertrophy. After six weeks, the ligature is removed under halothane anesthesia and a catheter (PE 60) with a cuff is placed in the dome of the bladder and secured with a purse string suture. The catheter is tunneled under the skin and exteriorized through an opening in the back of the neck. The abdominal incision is sutured and the free end of the catheter sealed. In order to prevent infections the rats receive an injection of bicillin C-R (150000 units/rat). Two days later the animals are used in cystometrical evaluations. The animals are placed in the metabolic cages and the catheter is attached (using a "T" connector) to a Statham pressure transducer (Model P23Db) and to a Harvard infusion pump. A plastic beaker attached to a force displacement transducer (Grass FT03) is placed under the rat's cage to collect and record urine volume. Animals are allowed 15-30 min to rest before the saline infusion (20 ml/hr for 20 minutes) is started for the first cystometry period. […]
The following urodynamic variables are recorded: […]
The mean value of each variable is calculated before and after compound administration. For each compound the changes in the variables measured are compared to the values obtained before treatment and expressed as percent inhibition. The data are also subjected to 2-way analysis of variance to determine significant (p<0.05) changes in the variable measured. […]
`C[C@@H](Nc1c(NCc2ccc(F)cc2)c(=O)c1=O)C(C)(C)C` [Example 1, (R)-3-(4-Fluoro-benzylamino)-4-(1,2,2-trimethyl-propylamino)-cyclobut-3-ene-1,2-dione]: the “% Ampl: Percent change in the amplitude of spontaneous contractions in the hypertrophied rat bladder model” value is on record as -64 ± 3% and the “% Red (F): Percent reduction in the total number of spontaneous contractions in the hypertrophied rat bladder model” value is 3 ± 25%. As to `CCC(C)(C)Nc1c(NCc2ccc(F)cc2)c(=O)c1=O` [Example 7, 3-(1,1-Dimethyl-propylamino)-4-(4-fluoro-benzylamino)-cyclobut-3-ene-1,2 dione], the “% Ampl: Percent change in the amplitude of spontaneous contractions in the hypertrophied rat bladder model” value is -3 ± 35% and the “% Red (F): Percent reduction in the total number of spontaneous contractions in the hypertrophied rat bladder model” value is on record as 67 ± 2%.

Another experiment relates to isolated rat bladder strips (smooth muscle). Kind of experiment: Inhibition of contractions in isolated rat bladder strips. More on the design: species or system Sprague-Dawley rat. The following applies: 30 μM, 15 mM KCl-enhanced contractions, read-out: Percent inhibition at 30 μM (footnote a). Here is the method: The smooth muscle relaxing activity of the compounds of this invention was established in accordance with standard pharmaceutically accepted test procedures with representative compounds as follows:
Sprague-Dawley rats (150-200 g) are rendered unconscious by CO2 asphyxiation and then euthanized by cervical dislocation. The bladder is removed into warm (37° C.) physiological salt solution (PSS) of the following composition (mM): NaCl, 118.4; KCl, 4.7; CaCl2, 2.5; […]; NaHCO3, 24.9; KH2 PO4, 1.2; glucose, 11.1; EDTA, 0.023; gassed with 95% O2; […]; pH 7.4 The bladder is opened and then cut into strips 1-2 mm in width and 7-10 mm in length. The strips are subsequently suspended in a 10 mL tissue bath under an initial resting tension of 1.5 g. The strips are held in place by two surgical clips one of which is attached to a fixed hook while the other is attached to an isometric force transducer. […] The carbachol is then washed out and the tissue allowed to relax to its resting level of activity. Following a further 30 min. period of recovery an additional 15 mM KCl are introduced into the tissue bath. This increase in KCl concentration results in a large increase in the amplitude of spontaneous contractions (and initiation of contractions in previously quiescent strips) superimposed upon a small increase in basal tone. Following stabilization of this enhanced level of contractile activity, incremental increases in the concentration of test compound or vehicle are introduced into the tissue bath. Contractile activity is measured for each compound or vehicle concentration during the last minute of a 30 minute challenge.
The isometric force developed by the bladder strips is measured using a […] to elicit 50% inhibition of pre-drug contractile activity (IC50 concentration) and is calculated from this concentration-response curve.
Broadly, the inhibition is the relative decrease from the control value, in per cent. For the molecule `CC(C)(C)Nc1c(NCc2ccc(OC(F)(F)F)cc2)c(=O)c1=O` [Example 3, 3-tert-Butylamino-4-(4-trifluoromethoxy-benzylamino)-cyclobut-3-ene-1,2-dione], the inhibition at 30 µM was determined as 16.2%. For the molecule `C[C@@H](Nc1c(NCc2ccc(OC(F)(F)F)cc2)c(=O)c1=O)C(C)(C)C` [Example 6, (R)-3-(4-trifluoromethoxy-benzylamino)-4-(1,2,2-trimethyl-propylamino)-cyclobut-3-ene-1,2-dione], the inhibition at 30 µM worked out at 20.4%. For `C[C@@H](Nc1c(NCc2cccc(C(F)(F)F)c2)c(=O)c1=O)C(C)(C)C` [Example 13, (R)-3-(3-trifluoromethyl-benzylamino)-4-(1,2,2-trimethyl-propylamino) cyclobut-3-ene-1,2-dione], the inhibition at 30 µM is 40.1%. Still for that read-out and setting: under `C[C@@H](Nc1c(NCc2cccc(OC(F)(F)F)c2)c(=O)c1=O)C(C)(C)C` [Example 16, (R)-3-(3-trifluoromethoxy-benzylamino)-4-(1,2,2-trimethyl-propylamino)-cyclobut3-ene-1,2-dione] stands 10%.

The experiment is the same for the next values; noted with them: 0.5 h, 15 mM KCl-enhanced contractions, 30 minute challenge, ± spread.
In general, IC50 refers to the concentration that gives 50% inhibition. Take `C[C@@H](Nc1c(NCc2ccc(F)cc2)c(=O)c1=O)C(C)(C)C` [Example 1, (R)-3-(4-Fluoro-benzylamino)-4-(1,2,2-trimethyl-propylamino)-cyclobut-3-ene-1,2-dione]: the IC50 turned out to be 0.76 ± 0.46 µM. Consider `C[C@@H](Nc1c(NCc2ccc(C(F)(F)F)cc2)c(=O)c1=O)C(C)(C)C` [Example 2, (R)-3-(4-trifluoromethyl-benzylamino)-4-(1,2,2-trimethyl-propylamino)-cyclobut-3-ene-1,2-dione], for which the IC50 was 6.5 ± 1.9 µM. Turning to `CC(C)(C)Nc1c(NCc2ccc(C(F)(F)F)cc2)c(=O)c1=O` [Example 4, 3-tert-Butylamino-4-(4-trifluoromethyl-benzylamino)-cyclobut-3-ene-1,2-dione], the IC50 is 6.5 ± 0.87 µM. As to `CC(C)(C)Nc1c(NCc2ccc(F)cc2)c(=O)c1=O` [Example 5, 3-tert-Butylamino-4-(4-fluoro-benzylamino)-cyclobut-3-ene-1,2-dione], the IC50 was 1.5 ± 0.32 µM. For `CCC(C)(C)Nc1c(NCc2ccc(F)cc2)c(=O)c1=O` [Example 7, 3-(1,1-Dimethyl-propylamino)-4-(4-fluoro-benzylamino)-cyclobut-3-ene-1,2 dione], the IC50 turned out to be 0.36 ± 0.14 µM. For the molecule `CC(C)(C)Nc1c(NCc2cccc(F)c2)c(=O)c1=O` [Example 8, 3-tert-Butylamino-4-(3-fluoro-benzylamino)-cyclobut-3-ene-1,2-dione], the IC50 was 2.4 ± 0.36 µM. Turning to `CC(C)(C)Nc1c(NCc2ccccc2F)c(=O)c1=O` [Example 9, 3-tert-Butylamino-4-(2-fluoro-benzylamino)-cyclobut-3-ene-1,2-dione], the IC50 stood at 2.08 ± 0.25 µM. As for `CC(C)(C)Nc1c(NCc2cccc(C(F)(F)F)c2)c(=O)c1=O` [Example 10, 3-tert-Butylamino-4-(3-trifluoromethyl-benzylamino)-cyclobut-3-ene-1,2-dione], the IC50 came to 7.9 ± 2.7 µM.

For the molecule `CC(C)(C)Nc1c(NCc2ccccc2C(F)(F)F)c(=O)c1=O` [Example 11, 3-tert-Butylamino-4-(2-trifluoromethyl-benzylamino)-cyclobut-3-ene-1,2-dione], the IC50 was 2.3 ± 0.51 µM. For the molecule `CC(C)(C)Nc1c(NCc2cccc(OC(F)(F)F)c2)c(=O)c1=O` [Example 12, 3-tert-Butylamino-4-(3-trifluoromethoxy-benzylamino)-cyclobut-3-ene-1,2-dione], the IC50 worked out at 13.6 ± 3.3 µM. Regarding `C[C@@H](Nc1c(NCc2ccccc2C(F)(F)F)c(=O)c1=O)C(C)(C)C` [Example 14, (R)-3-(2-trifluoromethyl-benzylamino)-4-(1,2,2-trimethyl-propylamino) cyclobut-3-ene-1,2-dione], the IC50 is 20.4 ± 7.8 µM. Same read-out and setting: under `C[C@@H](Nc1c(NCc2ccccc2F)c(=O)c1=O)C(C)(C)C` [Example 15, (R)-3-(2-fluoro-benzylamino)-4-(1,2,2-trimethyl-propylamino) cyclobut-3-ene-1,2-dione] stands 1.23 ± 0.22 µM.

(Values after patent publication US5750574A, “Fluorinated N-arylmethylamino derivatives of cyclobutene-3,4-diones” (American Home Products Corporation, priority 1997, dated 1998).)
